According to patent publication US20020111318A1, “Process for the preparation of non-hygroscopic azithromycin dihydrate” (priority 2001, published 2002):
Blank lines part the entries; values can stand above or below the compound they belong to.

Legend:
[1] = Moisture uptake of crystals on exposure to ambient atmosphere (hygroscopicity); format: physicochemical
Protocol: 9-Deoxo-9a-aza-9a-homoerythromycin A (73.5 g-0.1 mole) was dissolved in 250 ml acetone. To this solution, formic acid (19 ml) followed by formaldehyde (37%, 20 ml) were added and refluxed for 24 hrs. The pH of the reaction mixture was adjusted with alkali to 10.5 and filtered to remove particles. To the filtered acetone solution equal volume of water was added to precipitate azithromycin hygroscopic monohydrate as cube shaped crystals. The crystals were filtered and dried under vacuum at 50° C. to give 65 g of azithromycin monohydrate melting at 130-131° C. having a water content of 3.42% (by Karl Fischer titration method). This sample of hygroscopic monohydrate has a characteristic solid state (KBr pellet) IR spectrum (FIG. 1) and a characteristic x-ray diffraction pattern (FIG. 4).
10 gms of hygroscopic azithromycin-monohydrate was suspended in a mixture of iso-propanol (10 ml) and water (10 ml) and stirred at ambient temperature. The transformation of cubical crystals of monohydrate form to the rhomboid form crystals of dihydrate was followed by checking the crystal habit under a microscope at every two hour interval. At 16 hours the rhomboid dihydrate crystals only were seen. The slurry was filtered and dried under vacuum at 50° C. to give 9.8 g of azithromycin dihydrate. […] It has a characteristic solid state IR spectrum (KBr pellet) (FIG. 2) and x-ray diffraction pattern (FIG. 3).

[2] = tested on: gram negative organisms; conditions: Dunn and Barradell, Drugs 1996; cited from earlier work

change in moisture content on exposure to ambient atmosphere ([1]; dihydrate crystals dried under vacuum at 50° C., then exposed to ambient atmosphere): no change in the moisture content
Compound: CC[C@H]1OC(=O)[C@H](C)[C@@H](O[C@H]2C[C@@](C)(OC)[C@@H](O)[C@H](C)O2)[C@H](C)[C@@H](O[C@@H]2O[C@H](C)C[C@H](N(C)C)[C@H]2O)[C@](C)(O)C[C@@H](C)CN(C)[C@H](C)[C@@H](O)[C@]1(C)O [azithromycin dihydrate, Azithromycin dihydrate]

Compound: CC[C@H]1OC(=O)[C@H](C)[C@@H](O[C@H]2C[C@@](C)(OC)[C@@H](O)[C@H](C)O2)[C@H](C)[C@@H](O[C@@H]2O[C@H](C)C[C@H](N(C)C)[C@H]2O)[C@@](C)(O)C[C@@H](C)CN(C)[C@H](C)[C@@H](O)[C@]1(C)O [Azithromycin, 9-Deoxo-9a-aza-9a-methyl-9a-homo-Eryhromycin A]
activity against gram negative organisms compared to Erythromycin A [2]: significant improvement in its activity

moisture content reached on exposure to ambient atmosphere ([1]; exposure to ambient atmosphere, 48 hrs, water content after drying 3.42% (Karl Fischer)): 5.4%
Compound: CC[C@H]1OC(=O)[C@H](C)[C@@H](O[C@H]2C[C@@](C)(OC)[C@@H](O)[C@H](C)O2)[C@H](C)[C@@H](O[C@@H]2O[C@H](C)C[C@H](N(C)C)[C@H]2O)[C@](C)(O)C[C@@H](C)CN(C)[C@H](C)[C@@H](O)[C@]1(C)O [azithromycin monohydrate, Azithromycin monohydrate]
